Marks after values point to notes of the source that are not given here.
Tests used:
MTAP(+) HF cells [1] = assay: Coulter counts of HF cell cultures; format: cell-based, human; conditions: for Coulter counts: x56 = cells/dish
Experimental: For adherent cell types (e.g., HF, A549, MCF7) cells were plated in 60 mm -diameter plastic tissue culture dishes and incubated at 37° C. in a humidified 5% CO2 atmosphere, in Dulbecco's Modified Eagle's Medium (DME) with 10% fetal bovine serum (FBS). At the start of an experiment, medium was replaced with DME and 10% dialyzed FBS.
(§1) For adherent cell types, cell numbers were determined periodically by releasing cells with trypsin (dead cells that were no longer adherent were removed by two prior rinses of the culture dish) and placing a portion of the resulting cell suspension in a Coulter counter. For cell types that grow in suspension, portions of the culture were counted directly, without trypsin treatment. Coulter counts of cells from each dish were done twice, and almost all experiments were done in duplicate. In the presentation of results, raw data for Coulter counts is given in some cases, while in others, counts have been rounded off to two to three significant figures. (Background Coulter counts—i.e., counts of diluent alone—were insignificant.)
Cell cultures were treated with MeP, with or without 5′-dAdo or MTA, for 4 days. The cell cultures were then changed to fresh medium, with the addition of 30 μM Ade to inhibit further action of the analog. Two days later cultures were trypsinized and a portion of the suspension was counted.
• A. F-Ade was added to cultures of HF cells, with varying amounts of 5′-dAdo. After 3 days, cell numbers were counted. • Initial cell count: 1,100 • After three days:
• Cultures of human fibroblasts were treated with DAP, 5′-dAdo, MTA, adenine, or MTX. Thymidine (15 μM) was added to all cultures. • Initial count was: 1807 • Counts, as raw data, after 3 days of incubation, are shown below: […]
• Human fibroblasts in culture were treated with 6-thioguanine (TG), 2,6-diaminopurine (DAP), or 5′-dAdo for 3 days. After trypsinization, cell numbers were counted. • Initial cell number: 296,000

MTAP(+) ML-1 cells = assay: Coulter counts of ML-1 suspension cultures; format: cell-based
Experimental: For cell types that grow in suspension (e.g., ML-1, HL-60, K-562) medium was RPMI-1640 with 10% FBS (undialyzed).
as §1
For cells that grow in suspension, the effect of treatments was assessed solely by changes in Coulter count.
• ML-1 cells were incubated in RPMI 1640 with 10% FBS with 5′-dAdo (60 μM) for 6 hours. 5-fluorouracil (FU), 6-thioguanine (TG), or 2,6-diaminopurine (DAP) were then added, and after 2 additional days, 0.5 ml was taken for Coulter counts. Initial Coulter count/ml: 308,000

[2] = system: human fibroblasts (HF cells), MTAP-positive; assay: Coculture of HF and MCF7 cells treated with DAP with or without MTA, photographs; format: cell-based
Experimental: (§2) FIGS. 6A and 6B present photographs of experiments examining the efficacy of the selective therapeutic method of the invention in two human-tissue coculture experiments. In both experiments human fibroblasts (HF cells), which are MTAP-positive, and MCF7 cells, an MTAP-negative human breast adenocarcinoma cell line, were seeded together into culture dishes, in DME supplemented with 10% dialyzed fetal bovine serum.
(§3) In the experiment of FIG. 6A the cell coculture was treated for four days with 100 μM DAP and 25 μM MTA. At the end of this period, some of the culture dishes were fixed, to be photographed. Other dishes were trypsinized and diluted five-fold into fresh (drug-free) medium with adenine added (to stop any further toxic action of DAP) and allowed to grow for two more, or five more, days, before being fixed for photography.
(§4) In the experiment of FIG. 6B cell cocultures were treated for three days with 200 μM DAP alone or with the addition of 50 μM MTA, or with no drugs at all. As shown in the photo of the dish without any drugs added to the culture medium, both HF and MCF7 grew very well; many large masses of MCF7 cells are visible, with the elongated HF cells interspersed, confluently, between the MCF7 masses.

[3] = system: MCF7 cells, an MTAP-negative human breast adenocarcinoma cell line; assay: as above; format: cell-based
Experimental: as §2, §3, §4

[4] = system: human and mouse tumor cells; assay: Killing of tumor cells by adenine analogs (Applicants' findings, no method given); format: cell-based
MTAP(−) A549 cells [5] = assay: Clonogenic assay of A549 cells; format: cell-based, human
Experimental: (§5) Cell viability of adherent cell types was measured by clonogenic assay as follows: after releasing cells with trypsin and removing a portion of the cell suspension for Coulter counting, the remainder of the cell suspension was plated in serial dilutions in growth medium, without drugs. After a period sufficient for clones to reach a size visible by eye (usually 2 to 3 weeks), clones were stained with crystal violet in a saline/methanol solution. Dishes that had fewer than 100 clones were deemed suitable for counting. From these counts and from the dilution factors, the approximate number of viable cells, in the parent treatment dishes, was calculated. […] In clonogenic assays, clone size was often variable, especially after treatment with toxic drugs. Moreover, many of the very small clones may have arisen from cells detached during the weeks of incubation. […] Cloning efficiency for healthy, growing A549 cells was about 50%; for HF cells, efficiency was quite variable, ranging from 25 to 75% (perhaps because the HF cell stock varied, from experiment to experiment, in passage number).
A549 cells were incubated for 4 days with additions shown below, and viable cells measured by clonogenic assay. (Results shown are approximate; see Methods) Cell count in dish at start: 40,000
(§6) • MTAP(−) A549 lung tumor cell cultures were treated with F-Ade, with or without MTA, 5′-dAdo, or adenine (Ade), for three days. Coulter counts of cells, and viable cells as determined by clonogenic assay, are shown below: • Initial cell number: 10,340*
• A549 cell cultures were treated with DAP, with or without 5′-dAdo or adenine, for three days. After trypsinization, one-fourth of the cell suspension was counted, and raw data is shown below, with duplicate counts for each sample. The cell suspension was also serially diluted for clonogenic assay. • Counts at start of experiment: Dish one: 36,480; 39,160; Dish two: 52,680; 51,360. • Initial viable cells by clonogenic assay: 180,000.
• Cell cultures were treated with MTX or alanosine for one day. DAP was then added and 3 days later, cells were trypsinized and serially diluted for clonogenic assay. Results are shown below: • Initial viable cells: 146,000
• A549 cells were plated, and after they had adhered to the substrate, medium was changed to methionine-free medium with 10% dialyzed serum. L-ethionine (Eth) and MTA were added, and after 4 days, cell cultures were trypsinized and serially diluted for clonogenic assay. • Initial number of viable cells: 160,000*
• A549 cultures were treated with 6-thioguanine (TG) or 2,6,diaminopurine (DAP), or both, for 3 days. • Initial viable cells: 275,000 • After 3 days: […]

MTAP(−) A549-ouaR cells = assay: Coculture of HF and A549-ouaR cells, clonogenic assay; format: cell-based, human
Experimental: as §5
(§7) HF and A549-ouaR (a ouabain-resistant derivative of the human lung carcinoma cell line A549, isolated by Applicants) cells were cultured together in a medium containing DAP, and with or without 5′-dAdo. After 3 days, cultures were trypsinized and serially diluted into fresh medium for clonogenic assays. Some dishes were treated with 0.1 μM ouabain to kill HF cells and permit easy visualization of surviving A549-ouaR clones. Initial viable cells: HF cells, 11,000; A549-ouaR cells, 40,000.

MTAP(+) HF cells [6] = assay: as above; format: cell-based, human
Experimental: as §5, §7

MTAP(+) HF cells [7] = assay: Clonogenic assay of HF cells; format: cell-based, human
Experimental: as §5
• B. F-Ade was added to cultures of MTAP(+) HF cells, with or without 5′-dAdo, for 3 days. Cultures were then trypsinized and serially diluted for clonogenic assay. • Initial number of viable cells per dish: 45,000 • Viable cells after 3 days shown below:
• HF cells were plated, and after they had adhered to the substrate, medium was changed to methionine-free medium, with 10% dialyzed serum. • Initial Coulter count: 73,000*; viable cells: 88,000 • After 3 days in methionine-free medium, with or without L-ethionine (Eth) or MTA: […]

MTAP(−) A549 cells [8] = assay: Coulter counts of A549 cell cultures; format: cell-based, human; conditions: three days, MTA, 5′-dAdo or Ade 40 μM where present, initial 10,340, x4 = cells per dish
Experimental: as §1, §6
• A549 cell cultures were treated with DAP, with or without 5′-dAdo or adenine, for three days. After trypsinization, one-fourth of the cell suspension was counted, and raw data is shown below, with duplicate counts for each sample. […]

[9] = a few days of treatment with 100-200 μM DAP
[10] = three days, DAP 200 μM, MTA 50 μM where present

## Nc1nc(N)c2[nH]cnc2n1 [DAP, 2,6-diaminopurine]
MTAP(+) HF cells [1]; 3 days, MTX 10 μM, DAP 100 μM, 5′-dAdo, MTA or Ade 15 μM where present, thymidine 15 μM in all cultures, initial count 1807
  Coulter counts: 2,483
MTAP(+) HF cells [1]; 3 days, TG 40 μM, DAP 50 μM, 5′-dAdo 60 μM where present, initial cell number 296,000
  Increase in cells/dish: 254,000 cells/dish
MTAP(+) HF cells [1]; Example 8
  inhibition of MTAP(+) HF cells: inhibited
MTAP(+) HF cells [1]; Example 15
  inhibition of HF cell growth: inhibited
MTAP(+) ML-1 cells; 2 days, FU 3 μM, TG 20 μM, DAP 50 μM where present, initial Coulter count/ml 308,000
  Increase in cell number/ml, No 5′-dAdo: 220,000 /ml
MTAP(+) ML-1 cells; Example 14
  inhibition of growth of MTAP(+) ML-1 cells: inhibited growth
[2]; [9]
  killing of HF cells in coculture: effectively killed
[2]; [10]
  HF cells in coculture (photographs, FIG. 6B): very few, if any, HF or MCF7 cells have survived
[3]; [9]
  killing of MCF7 cells in coculture: effectively killed
[3]; [10]
  MCF7 cells in coculture (photographs, FIG. 6B): very few, if any, HF or MCF7 cells have survived
[4]
  killing of human and mouse tumor cells: very rapid and potent killing
MTAP(−) A549 cells [5]; 100 μM DAP
  toxicity to MTAP(−) A549 cells: highly toxic
MTAP(−) A549 cells [5]; 3 days, TG 40 μM, DAP 50 μM where present, initial viable cells 275,000
  Viable Cells: 12,000
MTAP(−) A549 cells [5]; MTX 1 μM or alanosine 3 μM for one day, then DAP 40 μM, 3 days (where present), initial viable cells 146,000
  Viable Cells: 59,000
MTAP(−) A549 cells [5]; three days, DAP 100 μM, 5′-dAdo or Ade 30 μM where present, initial viable cells 180,000
  Viable Cells: 0
MTAP(−) A549-ouaR cells; DAP alone
  killing of A549-ouaR cells in coculture: effectively killed
MTAP(−) A549-ouaR cells; coculture, 3 days, DAP 125 μM, 5′-dAdo 7.5 μM where present, initial viable A549-ouaR cells 40,000
  Viable A549-ouaR: 0
MTAP(+) HF cells [6]; DAP alone
  killing of HF cells in coculture: effectively killed
MTAP(+) HF cells [6]; coculture, 3 days, DAP 125 μM, 5′-dAdo 7.5 μM where present, initial viable HF cells 11,000
  Viable HF: 240

## Nc1nc(F)nc2nc[nH]c12 [F-Ade, 2-fluoroadenine]
MTAP(+) HF cells [1]; 3 days, F-Ade 0.3 μM, 5′-dAdo 7.5 μM where present, initial count 1,100
  Coulter counts: 1478
MTAP(+) HF cells [1]; 3 days, F-Ade 0.6 μM, 5′-dAdo 7.5 μM where present, initial count 1,100
  Coulter counts: 976
MTAP(+) HF cells [1]; increasing concentrations of F-Ade
  inhibition of HF cell growth: increasing inhibition
MTAP(+) HF cells [7]; 2 μM F-Ade, after 3 days
  survival of HF cells: no HF cells survive
MTAP(+) HF cells [7]; 3 days, F-Ade 2 μM, 5′-dAdo 30 μM where present, initial viable cells per dish 45,000
  Viable Cells: 0*
[4]
  killing of human and mouse tumor cells: very rapid and potent killing
[4]; very short-term assays of 6 to 12 hours
  killing of human tumor cells: effectively kill
MTAP(−) A549 cells [5]; 1 to 2 μM F-Ade
  toxicity to A549 tumor cells, clonogenic assay: highly toxic
MTAP(−) A549 cells [5]; three days, F-Ade 1 μM, MTA, 5′-dAdo or Ade 40 μM where present
  Viable Cells: 64
MTAP(−) A549 cells [5]; three days, F-Ade 2 μM, MTA, 5′-dAdo or Ade 40 μM where present
  Viable Cells: 0
MTAP(−) A549 cells [8]; F-Ade 1 μM
  Coulter counts: 7,980
MTAP(−) A549 cells [8]; F-Ade 2 μM
  Coulter counts: 7,890

Source: patent publication US8796241B2, “Therapy of tumors and infectious agents deficient in methylthioadenosine phosphorylase” (priority 2007, dated 2014)
